Assay results taken from the METLIN SMRT retention time set (Domingo-Almenara et al. 2019).

Assay: gradient 5% acetonitrile 3 min, to 50% in 2 min, to 85% in 15 min, held 3 min, 100 µL/min
Conditions: column: Zorbax Extend-C18 2.1 x 50 mm; eluents: water / acetonitrile, 0.1% formic acid
In short: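 In both positive and negative ionization mode, a quadrupole time-of-flight mass spectrometer coupled to HPLC analyzed pure standards run in mixtures of ~100 molecules. The Zorbax Extend-C18 column (2.1 × 50 mm, 1.8 μm) was operated at 100 μL/min with water and acetonitrile, each containing 0.1% formic acid. The dead volume was 40 μL and the dwell volume 900 μL. Retention time came from adduct peaks that were computationally picked and individually inspected by hand.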

| Compound | RP-LC retention time |
| --- | --- |
| Cn1c(=O)c2nc(SCCC(=O)Nc3cc(F)cc(F)c3)n(C)c2n(C)c1=O | 751 s |
| Cc1cc(-c2nnc(-c3ccc(F)cc3)o2)c(C)n1CC(=O)Nc1ccc2c(c1)OCO2 | 938 s |
| Cc1ccc(C)c(-c2csc(NC(=O)c3cccs3)n2)c1 | 1040 s |
| CCOC(=O)c1ccc(NC(=O)Cn2cccc(-c3nc(-c4ccc(F)cc4)no3)c2=O)cc1 | 922 s |
| Cc1cc(Nc2ccc(NC(=O)Cc3cccs3)cc2)nc(N2CCCC2)n1 | 595 s |
| CCc1nc(N2CCCC2=O)sc1C(=O)Nc1ccc(OC)c(Cl)c1 | 905 s |
| O=C(Cn1nc2c3ccc(F)cc3ncn2c1=O)Nc1ccccc1Cl | 725 s |
| Cc1cccc(CN2CCCn3nc(C(=O)NCCN4CCOCC4)cc3C2=O)c1 | 621 s |
| CCc1noc(-c2ccnc(-n3cnc(C(=O)NC4CCCC4)c3)c2)n1 | 839 s |
| Cc1nn(C)c(C)c1CNC(=O)C1CC(=O)N(c2n[nH]c3cccc(F)c23)C1 (stereo not drawn) | 594 s |
| COc1ccc(-n2ccn(CC(=O)Nc3ccc(Br)cc3)c(=O)c2=O)cc1 | 728 s |
| CCNc1cc(N2CCCC(CCC(=O)N3CCOCC3)C2)ncn1 (stereo not drawn) | 586 s |
| Cc1ccc(-c2cc(C(=O)NCCCn3ccnc3)c3ccccc3n2)s1 | 684 s |
| Cc1nn(-c2ccc(F)cc2)c(-n2cccc2)c1C(=O)N1CCN(c2ccccn2)CC1 | 650 s |
| Cc1nnc2c(=O)n(CC(=O)N3CCN(C4CCCCC4)CC3)c3cccnc3n12 | 587 s |
| Cc1ccc(-c2nc(-c3cccc(-c4ccn[nH]4)c3)no2)s1 | 1020 s |
| Cc1csc(-c2cc(S(=O)(=O)N3CCCc4ccccc43)c(C)s2)n1 | 1210 s |
| CC(=O)N1CCc2cc(N3CC(C(=O)Nc4cccc(F)c4)CC3=O)ccc21 (stereo not drawn) | 710 s |
| Cc1cc(NC(=O)Cn2nc3c4sc(N(C)C)nc4ncn3c2=O)ccc1Br | 778 s |
| CCn1c(C(=O)N2CCN(c3ccc(OC)cc3)CC2)cc2sccc21 | 973 s |
| COc1ccccc1-c1noc(C2CCCN2C(=O)Nc2ccc3c(c2)OCCO3)n1 (stereo not drawn) | 762 s |
| CCN1C(=O)Cc2ccccc2C1C(=O)NCc1ccccc1Br (stereo not drawn) | 780 s |

| Compound | RP-LC retention time |
| --- | --- |
| O=C(c1ccsc1)N1CCC(c2nc(-c3ccc(F)cc3)n[nH]2)CC1 | 726 s |
| CCn1cc(C(=O)Nc2ccccc2)c(S(=O)(=O)N2CCSCC2)n1 | 834 s |
| Cn1c(N2CCCC(C(=O)NCc3cccs3)C2)cc(=O)n(C)c1=O (stereo not drawn) | 650 s |
| Cc1ccc(C)c(NC(=O)Cn2cccc(-c3nc(-c4ccc(Br)cc4)no3)c2=O)c1 | 1030 s |
| CC1=C(c2ccccc2)S(=O)(=O)N=C1N1CCCN(C(=O)c2ccc(C)s2)CC1 | 821 s |
| COc1ccc(CCNC(=O)C2CCCN(S(=O)(=O)c3ccc(OC)c(C)c3)C2)cc1 (stereo not drawn) | 891 s |
| Cc1cc(NC(=O)Cn2cccc2-c2nc(-c3ccc4c(c3)OCO4)no2)n[nH]1 | 786 s |
| COc1ccccc1-c1nc(-c2ccc3c(c2)ncn3CCN2CCOCC2)no1 | 625 s |
| COC(=O)c1ccc(NC(=O)CSc2nnc3c4cc(-c5ccccc5)nn4ccn23)cc1 | 1060 s |
| CCn1c(SC)nnc1-c1nn(C)c2c1CN(C(=O)c1ccc(F)cc1)CC2 | 763 s |
| CN(C)C1(CC2CC2)CCN(C(=O)C2CC2)CC1 | 558 s |
| CCOc1ccc(-c2noc(Cn3c(=O)n(CCCOC)c(=O)c4ccccc43)n2)cc1OC | 956 s |
| CNC(=O)N1CCCC(c2cccc(C(=O)NCc3ccc(C(F)(F)F)cc3)c2)C1 (stereo not drawn) | 853 s |
| Cc1ccc(NC(=O)Nc2ccc(NC(=O)N3CCCC(C(=O)NCC4CC4)C3)cc2)cc1 (stereo not drawn) | 779 s |
| Cc1ccc(-c2cn3c(CC(=O)NC4CCCC4)csc3n2)cc1C | 798 s |
| O=C(CSc1nnc2c3sc(N4CCCC4)nc3ncn12)Nc1ccc(F)c(Cl)c1 | 890 s |
| O=C(CC1CCN(C(=O)c2ccc3oc(C4CC4)nc3c2)CC1)NCC1CCCO1 (stereo not drawn) | 640 s |
| CSc1ccc(CNC(=O)C2CCN(c3cncnc3N3CCOCC3)CC2)cc1 | 637 s |
| Cc1cc(C)cc(-c2nc(C3CC(=O)N(c4ccc(F)cc4)C3)no2)c1 (stereo not drawn) | 1060 s |
| Cc1nc(Nc2ccc(F)cn2)sc1C(=O)N1CCC(C(N)=O)(N2CCCCC2)CC1 | 590 s |
| CCC(Oc1ccc(=O)n(-c2ccc(F)cc2)n1)C(=O)Nc1cc(OC)c(OC)c(OC)c1 (stereo not drawn) | 592 s |
| CCCc1cc(NCCN(C)C)n2ncc(-c3ccccc3)c2n1 | 660 s |

| Compound | RP-LC retention time |
| --- | --- |
| O=C(NCc1cc(F)cc(F)c1)C1CCCN(c2nc3ccsc3c(=O)n2Cc2ccccc2)C1 (stereo not drawn) | 1050 s |
| CCOC(=O)Cc1ccc(NC(=O)N2CCC3(CC2)Nc2cc(F)ccc2-n2cccc23)cc1 | 1000 s |
| CC(=O)c1ccc(N2CCN(C(=O)c3csc(-c4ccc(C)n4C)n3)CC2)cc1 | 955 s |
| CCOC(=O)CCNC(=O)N1CCN(Cc2nc3cc(-c4ccccc4)ccc3o2)CC1 | 675 s |
| COc1cc(NC(=O)COc2cc(C(F)(F)F)c3c(C)nn(C)c3n2)cc(OC)c1 | 1030 s |
| O=C(Cn1ccnc1-c1ccnc(N2CCCC2)c1)NCc1ccc(Cl)cc1 | 601 s |
| CN1CCN(c2nc(C(=O)NC3CCN(c4ccc(=O)n(C)n4)CC3)cs2)CC1 | 566 s |
| CCCN1C(=O)c2[nH]nc(-c3ccc(OC)cc3)c2C1c1cccnc1 (stereo not drawn) | 656 s |
| CCCn1c(=O)c(C)nc2cc(-c3noc(Cc4ccc(OC)cc4)n3)ccc21 | 1040 s |
| Cc1cc(C(=O)NCCCN2CCOCC2)nc2cc(-c3ccccn3)nn12 | 630 s |
| O=C(Cc1nc(-c2ccccn2)n[nH]1)Nc1ccccc1 | 596 s |
| O=C(c1cn(-c2cc(N3CCSCC3)ncn2)cn1)N1CCSCC1 | 774 s |
| COC1CCC12CCN(C(=O)Nc1ccccc1)CC2 (stereo not drawn) | 782 s |
| CCOC(=O)c1nn(-c2ccc(C)cc2)c(=O)cc1NC(=O)c1cc(Cl)ccc1OC | 1140 s |
| CCN1c2ccc(C)cc2C(=O)NC12CCN(C(=O)c1ccc3c(c1)OCO3)CC2 | 788 s |
| Cc1noc(-c2nn(C)c3c2CN(C(=O)c2cccc(Br)c2)CC3)n1 | 783 s |
| O=C(c1cccs1)N1[C@H]2CC[C@@H]1c1cnc(-c3ccccc3)nc1C2 | 907 s |
| O=C(NCC(=O)N1CCN(c2ccccc2Cl)CC1)c1c[nH]c2ccccc12 | 785 s |
| Cc1ccccc1N1CCN(S(=O)(=O)c2ccc(-c3nnc(C4CC4)o3)o2)CC1 | 1090 s |
| O=C(Nc1ccc(C(F)(F)F)cc1)c1cnc(-c2ccccc2)nc1-c1ccncc1 | 1010 s |
| Cc1ccc(C)c(-c2csc(Nc3ccc(F)cn3)n2)c1 | 1150 s |
| CSc1ccc(CNC(=O)C2CCCN(c3ccnc(-c4ccc(F)cc4)n3)C2)cc1 (stereo not drawn) | 728 s |

| Compound | RP-LC retention time |
| --- | --- |
| CCOc1ccc(CNC(=O)CCc2nnc3c4cc(-c5ccccc5)nn4ccn23)cc1 | 785 s |
| CS(=O)(=O)N1CC(n2cc(C(=O)N3CCOCC3)nn2)C1 | 573 s |
| CC12CCC(C1)C(C)(C)C2OC(=O)c1ccccc1C(=O)O (stereo not drawn) | 1130 s |
| CN1CCc2ccccc2C1Cc1ccccc1NC(=O)c1sc2ccccc2c1Cl (stereo not drawn) | 852 s |
| COc1ccc(S(=O)(=O)N2CCN(CCO)CC2)c2ccccc12 | 573 s |
| O=C(NCc1ccccc1)c1ccc(-c2cncnc2)nc1 | 675 s |
| CCCS(=O)(=O)N1CCc2c(c(-c3nncn3Cc3ccccc3)nn2C)C1 | 769 s |
| Cc1ccc(NS(=O)(=O)c2ccc(-c3c(C)noc3C)cc2)cc1C | 996 s |
| CCCCNC(=O)c1ccc2c(c1)NC(=O)C(CC(C)C)N2 (stereo not drawn) | 754 s |
| Cc1cc(C)n(Cc2nc(-c3ccc(NC(=O)c4ccc(C)s4)cc3)oc2C)n1 | 955 s |
| Cn1nc(C2CCCN(C(=O)c3ccoc3)C2)n(C2CCCC2)c1=O (stereo not drawn) | 672 s |
| COc1ccc(OC)c(NC(=O)c2csc(-c3ccc(C)n3C)n2)c1 | 1230 s |
| COc1ccc(Cc2noc(Cc3nnc(-c4ccc(Cl)cc4)o3)n2)cc1 | 1010 s |
| COc1cccc(-c2nc(C3CC(=O)N(c4ccc(F)c(Cl)c4)C3)no2)c1 (stereo not drawn) | 1100 s |
| CN(C)c1cccc(C(=O)N2CCN(c3cc(-c4ccccc4)[nH]n3)CC2)c1 | 690 s |
| COc1ccc(-n2nc(N3CCCC(C(=O)NCc4ccco4)C3)ccc2=O)cc1 (stereo not drawn) | 740 s |
| CC(Oc1ccc(-c2cnc3ccccc3n2)cc1)C(=O)NCCN(C)C (stereo not drawn) | 634 s |
| Cc1nc(Cn2cccc2C(=O)Nc2cccc(C)c2C)no1 | 821 s |
| COc1cc(-c2cc(CN(CC3CCCO3)C(=O)C3CCCCC3)no2)cc(OC)c1OC (stereo not drawn) | 968 s |
| COc1ccc(NC(=O)N2CCC(n3c(-c4ccco4)nc4cccnc43)C2)cc1F (stereo not drawn) | 690 s |
| O=C(c1cnccn1)N1CCC(c2nc(-c3ccccc3)no2)C1 (stereo not drawn) | 758 s |
| Cc1cccc(N2CCN(C(=O)c3cn(-c4cc(N5CCSCC5)ncn4)cn3)CC2)c1 | 932 s |
